# Values joined by “and” are separate entries in the source; they are usually repeats but may differ in a detail not shown here. Equal values may be shown once.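 Five compound concentrations were applied to cells in 96-well plates for 48 hours; endpoints were derived by simple linear interpolation of the resulting dose-response curve. GI50: concentration for 50% inhibition of growth. TGI is the concentration that stops growth completely.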
# Tests used:
# Test in all cases: NCI-60 cell line screen, 48 h
# [1] = system: OVCAR-5 ovarian
# [2] = system: OVCAR-8 ovarian
# [3] = system: RXF 393 renal
# [4] = system: SR leukemia
# [5] = system: U251 CNS
# [6] = system: BT-549 breast
# [7] = system: OVCAR-4 ovarian
# [8] = system: UACC-257 melanoma
# [9] = system: A498 renal
# [10] = system: 786-0 renal
Compound,GI50 [1],TGI [1],GI50 [2],TGI [2],GI50 [3],TGI [3],GI50 [4],TGI [4],GI50 [5],TGI [5],GI50 [6],TGI [6],GI50 [7],TGI [7],GI50 [8],TGI [8],GI50 [9],TGI [9],GI50 [10],TGI [10]
COc1cccc(C2=NN(C(C)=O)C(c3cc(OC)c(OC)c(OC)c3)C2)c1 (stereo not given),8.09 µM,> 100 µM,5.1 µM,> 100 µM,4.02 µM,> 100 µM,0.437 µM,> 100 µM,3.37 µM,> 100 µM,5.57 µM,> 100 µM,6.88 µM,> 100 µM,> 100 µM,> 100 µM,6.44 µM,> 30 µM,2.63 µM,> 20.6 µM
Cc1nc(NC(=O)COc2cccc(/C=C3\COc4ccccc4C3=O)c2)sc1C,1.94 µM,3.88 µM,2.36 µM,5.78 µM,1.78 µM,3.48 µM,0.872 µM,> 100 µM,1.54 µM,2.9 µM,1.59 µM,3.28 µM,4.02 µM,13.9 µM,2.88 µM,8.13 µM,12.6 µM,25.2 µM,1.73 µM,3.22 µM
O=C(O[C@H]1CN[C@H](C#Cc2cc3ncnc(Nc4ccc(Cc5ccccc5)cc4)c3s2)C1)N1CCOCC1,9 µM,> 25 µM,5.33 µM,> 23.4 µM,1.35 µM,7.11 µM,11.2 µM,> 25 µM,5.52 µM,20.3 µM,4.74 µM,10.6 µM,6.22 µM,> 25 µM,5.46 µM,> 22.1 µM,0.768 µM,6.53 µM,7.3 µM,> 25 µM
COC(=O)c1c2c(c[n+]([O-])c1C)C(=O)C(NCc1ccccc1)=CC2=O,1.2 µM,2.57 µM,0.311 µM,1.16 µM,1.05 µM,2.48 µM,1.29 µM,> 100 µM,0.51 µM,1.89 µM,1.19 µM,2.54 µM,0.232 µM,0.835 µM,0.257 µM,0.734 µM,1.32 µM,2.65 µM,1.69 µM,3.8 µM
COc1ccc(S(=O)(=O)Nc2cc(/C=C\c3cc(OC)c(OC)c(OC)c3)cc(OC)c2OC)cc1OC,6.57 µM,> 100 µM,4.08 µM,> 100 µM,0.683 µM,4.55 µM,0.704 µM,> 100 µM,0.681 µM,> 100 µM,0.664 µM,90.1 µM,3.12 µM,> 100 µM,27 µM,> 100 µM,0.154 µM,0.906 µM,0.444 µM,> 100 µM
Oc1ccc(Cl)cc1Cc1cc(Cl)cc(Cc2cc(Cl)ccc2O)c1O,–,12.2 µM,–,16.8 µM,–,8.86 µM,–,11.6 µM,–,11.8 µM,–,9.61 µM,–,16.2 µM,–,5.18 µM,–,4.28 µM,–,11.3 µM
CCCCCCCCCCCCCCCCCC(=O)[O][Sn]([CH2]CCC)([CH2]CCC)[CH2]CCC,0.137 µM,0.34 µM,0.197 µM,0.451 µM,0.1 µM,0.253 µM,0.0738 µM,0.388 µM,0.153 µM,0.319 µM,0.138 µM,0.287 µM,0.108 µM,0.245 µM,0.144 µM,0.293 µM,0.0904 µM,0.232 µM,0.152 µM,0.305 µM
Clc1ccc(N/N=C/c2ccccn2)nc1,0.433 µM,> 94.3 µM,0.425 µM,> 100 µM,0.492 µM,15.7 µM,0.339 µM,> 52.8 µM,0.459 µM,> 100 µM,0.554 µM,> 55 µM,0.321 µM,> 100 µM,0.636 µM,> 23.6 µM,0.439 µM,5.9 µM,0.339 µM,> 100 µM
NC(Cc1cc(Br)c(O)c(Br)c1)C(=O)O (stereo not given),–,> 100 µM,–,> 100 µM,–,> 100 µM,–,> 100 µM,–,> 100 µM,–,> 100 µM,–,> 100 µM,–,> 100 µM,–,> 100 µM,–,> 100 µM
CCNC(=O)Nc1ccc(-c2nc3c(c(N4CCOC[C@@H]4C)n2)CCN(C2COC2)C3)cc1,0.302 µM and 0.384 µM,> 37.1 µM,0.46 µM and 0.534 µM,> 100 µM,0.137 µM and 0.125 µM,0.727 µM and 0.857 µM,0.439 µM and 0.416 µM,> 100 µM,0.357 µM and 0.413 µM,> 100 µM,0.175 µM and 0.115 µM,1.96 µM and 1.79 µM,0.154 µM and 0.259 µM,1.71 µM and > 7.24 µM,0.232 µM and 0.287 µM,2.74 µM and 3.92 µM,0.0164 µM and 0.0305 µM,0.114 µM and 0.2 µM,0.386 µM and 0.278 µM,29.1 µM and > 10 µM
NC(=O)Cc1ccccc1Oc1nccc(-c2c(-c3ccc(F)cc3)ncn2C2CCNCC2)n1,> 25 µM,> 25 µM,> 25 µM,> 25 µM,> 25 µM,> 25 µM,> 25 µM,> 25 µM,> 25 µM,> 25 µM,> 25 µM,> 25 µM,> 25 µM,> 25 µM,> 25 µM,> 25 µM,> 25 µM,> 25 µM,> 25 µM,> 25 µM
CCN(CC)CC(O)CNc1ccc(NCC(O)CCl)c2c1C(=O)c1ccccc1C2=O (stereo not given),–,29.2 µM,–,20.6 µM,–,26.6 µM,–,11.6 µM,–,28 µM,–,23.5 µM,–,16.1 µM,–,16 µM,–,21 µM,–,15.9 µM
O=C1C(=O)c2ccccc2C=C1[N+](=O)[O-],–,> 100 µM,–,> 100 µM,–,78.9 µM,–,> 100 µM,–,> 100 µM,–,> 100 µM,–,> 100 µM,–,58.9 µM,–,> 100 µM,–,> 100 µM
O=C1OCC2=C1C(c1ccccc1)c1cc3c(cc1N2CCO)CCC3 (stereo not given),0.203 µM,> 25 µM,0.144 µM,> 25 µM,0.0597 µM,0.138 µM,0.0762 µM,> 25 µM,0.116 µM,> 25 µM,0.223 µM,> 25 µM,0.127 µM,> 25 µM,0.0862 µM,> 25 µM,0.0746 µM,0.657 µM,0.0988 µM,> 14.5 µM
O=Cc1ncc(-c2ccc(C(F)(F)F)cc2)c(NC2CCCCCC2)n1,> 10 µM,> 10 µM,> 10 µM,> 10 µM,> 10 µM,> 10 µM,5.7 µM,> 10 µM,> 10 µM,> 10 µM,> 10 µM,> 10 µM,> 10 µM,> 10 µM,> 10 µM,> 10 µM,> 10 µM,> 10 µM,> 10 µM,> 10 µM
CCOc1ccc(/C=N/Nc2cc(C)nc3ccc(Cl)cc23)cc1,1.97 µM,3.5 µM,2.34 µM,5.19 µM,1.66 µM,3.06 µM,1.12 µM,3.5 µM,1.91 µM,3.38 µM,1.61 µM,3.15 µM,1.79 µM,3.51 µM,1.81 µM,3.32 µM,1.7 µM,3.45 µM,1.57 µM,3.03 µM
CC(C)Cc1ccc(C(C)/C=C2\CCC(CN3CCOCC3)C2=O)cc1 (stereo not given),–,35.9 µM,–,12.3 µM,–,22 µM,–,13.8 µM,–,27.7 µM,–,35.2 µM,–,33.4 µM,–,14.7 µM,–,27 µM,–,3.21 µM
O=C(c1ccc(F)c(F)c1Nc1ccc(I)cc1F)N1CC(O)([C@H]2CCCCN2)C1,0.914 µM,15.5 µM,12 µM,26.9 µM,2.08 µM,8.76 µM,3.94 µM,17.8 µM,3.5 µM,18.9 µM,10.9 µM,23.9 µM,3.81 µM,17.7 µM,0.08 µM,0.472 µM,1.11 µM,3.31 µM,7.72 µM,21.7 µM
C=C1C(=O)O[C@H]2[C@H]1CC/C(COC(=O)NCc1c[nH]c3ccc(OC)cc13)=C\CC[C@@]1(C)O[C@@H]21,2.14 µM,4.9 µM,1.61 µM,5.53 µM,1.18 µM,2.52 µM,0.331 µM,4.38 µM,3.39 µM,14 µM,0.441 µM,1.91 µM,2.14 µM,11.8 µM,2.02 µM,5.01 µM,13 µM,25.8 µM,0.445 µM,1.8 µM
O=C1OCC2=C1C(c1cccc([N+](=O)[O-])c1)c1cc3c(cc1N2CCO)CCC3 (stereo not given),0.231 µM,> 50 µM,0.244 µM,> 50 µM,0.123 µM,> 50 µM,0.0554 µM,> 36.3 µM,0.218 µM,> 50 µM,0.177 µM,5.32 µM,2.03 µM,> 50 µM,11.5 µM,> 50 µM,0.0684 µM,0.376 µM,0.0822 µM,16.8 µM

# Reference: PubChem BioAssay (NCI)
